Test results reported in US5527777A, “Peptide compounds, in particular LHRH-antagonists” (Schering Aktiengesellschaft, priority 1991, dated 1996).

Assays:
[1] = tested on: serum testosterone concentration; test: testosterone-reducing potential in intact adult male rats (serum testosterone, radioimmunological); assay type: in vivo; conditions: subcutaneous, one time, 0.25 mg/kg of body weight, after 24 hours
Experimental: The peptide compounds are to be used in the treatment of benign enlargements of the prostate and carcinomas of the prostate. Therefore, the testosterone-reducing potential is tested. For this purpose, generally clearly higher dosages of one and the same antagonists are required than for the induction of an inhibition of ovulation. In the test process used here, intact adult male rats are subcutaneously treated one time with the substance to be tested. The effect on the serum testosterone concentration after 24 hours is determined radioimmunologically (kit of the Biermann company).

Mastzell = Mastzell test (release of histamine); assay type: cell-based; conditions: ED50 still not achieved at highest stated concentration
release of histamine = test: in vivo observation of edematous changes on face/extremities as sign of histamine release; parameters: species or system rats; conditions: 0.1 to 5 mg/kg of body weight subcutaneously
Source text: In addition to the reduction of the testosterone value, the release of histamine is of importance. […] This in vivo test is ascribed considerably more relevance than the Mastzell test, used in many cases.

Q: Which “inhibition of serum testosterone concentration in comparison to the control” value [1] does the source give for “Ac--D--Nal--D--Cpa--D--Pal--Ser--Tyr--D--Cit--Leu--Ahx(Mor)--Pro--D--Ala--NH2 [Example 13]” here?
A: Its value is 26%.

Q: And the “ED50 of the release of histamine” value (Mastzell)?
A: Its value is greater than 10 µg/mL.

Q: What about the “edematous changes on the face and/or on the extremities (typical of histamine release)” value (release of histamine) of the same substance?
A: Its value is “occur at none of the tested dosages”.
